Each structure is given as a SMILES string. pIC50: −log10 of the molar value.

The experiment deals with b-Raf (V600E) (Homo sapiens (Human), UniProt P15056, V600E). To be noted: read-out: b-Raf IC-50; AlphaScreen, 60 min pre-incubation, reaction 3 hours at room temperature.
Sequence of b-Raf (V600E) (P15056 whole entry V600E): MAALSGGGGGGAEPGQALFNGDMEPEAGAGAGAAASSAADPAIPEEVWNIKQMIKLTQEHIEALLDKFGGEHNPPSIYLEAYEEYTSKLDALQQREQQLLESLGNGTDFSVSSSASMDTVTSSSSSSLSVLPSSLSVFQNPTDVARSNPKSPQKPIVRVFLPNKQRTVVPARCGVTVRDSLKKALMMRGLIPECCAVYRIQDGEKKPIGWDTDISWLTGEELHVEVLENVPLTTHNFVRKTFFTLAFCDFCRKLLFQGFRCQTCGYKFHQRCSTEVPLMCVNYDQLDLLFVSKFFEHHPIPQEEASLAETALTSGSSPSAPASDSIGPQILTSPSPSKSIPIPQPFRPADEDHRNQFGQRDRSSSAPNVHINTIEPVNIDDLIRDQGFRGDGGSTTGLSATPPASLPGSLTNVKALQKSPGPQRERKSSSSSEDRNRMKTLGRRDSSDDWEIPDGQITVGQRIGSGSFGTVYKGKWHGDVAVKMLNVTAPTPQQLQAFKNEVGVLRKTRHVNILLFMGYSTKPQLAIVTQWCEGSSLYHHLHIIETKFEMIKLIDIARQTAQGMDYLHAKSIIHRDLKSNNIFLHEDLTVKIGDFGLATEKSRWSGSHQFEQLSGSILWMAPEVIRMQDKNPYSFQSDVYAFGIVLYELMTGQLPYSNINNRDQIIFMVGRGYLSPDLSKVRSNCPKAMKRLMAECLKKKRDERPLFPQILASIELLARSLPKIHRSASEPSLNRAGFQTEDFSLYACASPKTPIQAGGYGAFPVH
Turning to `Cc1ncc(NC(=O)c2cccc(C(F)(F)F)c2)cc1-c1cc(N2CCOCC2)c2nccn2c1` [Example 884, N-(6-methyl-5-(8-morpholinoimidazo[1,2-a]pyridin-6-yl)pyridin-3-yl)-3-(trifluoromethyl)benzamide], the pIC50 is 7.71.

As for `Cc1ncc(NC(=O)c2cccc(C(F)(F)F)c2)cc1-c1nc2c(c(N3CCOCC3)n1)CS(=O)(=O)C2` [Example 886, N-(6-methyl-5-(4-morpholino-6,6-dioxido-5,7-dihydrothieno[3,4-d]pyrimidin-2-yl)pyridin-3-yl)-3-(trifluoromethyl)benzamide], the pIC50 is 8.12.

Turning to `Cc1c(-c2nc3c(c(N4CCOCC4)n2)CS(=O)(=O)C3)cc(NC(=O)c2cccc(C(F)(F)F)c2)c[n+]1[O-]` [Example 887, 2-methyl-3-(4-morpholino-6,6-dioxido-5,7-dihydrothieno[3,4-d]pyrimidin-2-yl)-5-(3-(trifluoromethyl)benzamido)pyridine 1-oxide], the pIC50 was 5.89.

In the case of `Cc1ccc(C(=O)Nc2cccc(C(F)(F)F)c2)cc1-c1cc(N2CCOCC2)c2nccn2n1` [Example 888, 4-methyl-3-(8-morpholinoimidazo[1,2-b]pyridazin-6-yl)-N-(3-(trifluoromethyl)phenyl)benzamide], the pIC50 was 8.80.

For `Cc1ccc(C(=O)Nc2cccc(C(F)(F)F)c2)cc1-c1nc2c(c(N3CCOCC3)n1)CNC2` [Example 889, 4-methyl-3-(4-morpholino-6,7-dihydro-5H-pyrrolo[3,4-d]pyrimidin-2-yl)-N-(3-(trifluoromethyl)phenyl)benzamide], the pIC50 is 8.48.

Turning to `Cc1ccc(NC(=O)c2cnnc(C3(C#N)CC3)c2)cc1-c1cc(N2CCOCC2)n(C)c(=O)c1` [Example 899, 6-(1-cyanocyclopropyl)-N-(4-methyl-3-(1-methyl-6-morpholino-2-oxo-1,2-dihydropyridin-4-yl)phenyl)pyridazine-4-carboxamide], the pIC50 was 8.73.

For the compound `Cc1ccc(NC(=O)c2cc(C(C)(C)C#N)ccn2)cc1-c1cc(N2CCOCC2)n(C)c(=O)c1` [Example 900, 4-(2-cyanopropan-2-yl)-N-(4-methyl-3-(1-methyl-6-morpholino-2-oxo-1,2-dihydropyridin-4-yl)phenyl)picolinamide], the pIC50 is 8.50.

`Cc1ccc(NC(=O)c2cncc(C(F)(F)F)c2)cc1-c1cc(N2CCOCC2)n(C)c(=O)c1` [Example 901, N-(4-methyl-3-(1-methyl-6-morpholino-2-oxo-1,2-dihydropyridin-4-yl)phenyl)-5-(trifluoromethyl)nicotinamide]: the pIC50 was 9.07.

With `Cc1ccc(NC(=O)c2cnnc(C3(C#N)CC3)c2)cc1-c1cc(N2CCOCC2)c(=O)n(C)c1` [Example 902, 6-(1-cyanocyclopropyl)-N-(4-methyl-3-(1-methyl-5-morpholino-6-oxo-1,6-dihydropyridin-3-yl)phenyl)pyridazine-4-carboxamide], the pIC50 was 8.47.

As for `Cc1ccc(NC(=O)c2cc(C(C)(C)C#N)ccn2)cc1-c1cc(N2CCOCC2)c(=O)n(C)c1` [Example 903, 4-(2-cyanopropan-2-yl)-N-(4-methyl-3-(1-methyl-5-morpholino-6-oxo-1,6-dihydropyridin-3-yl)phenyl)picolinamide], the pIC50 is 8.44.

As for `Cc1ccc(NC(=O)c2cncc(C(F)(F)F)c2)cc1-c1cc(N2CCOCC2)c(=O)n(C)c1` [Example 904, N-(4-methyl-3-(1-methyl-5-morpholino-6-oxo-1,6-dihydropyridin-3-yl)phenyl)-5-(trifluoromethyl)nicotinamide], the pIC50 was 8.70.

For the compound `Cc1ccc(NC(=O)c2cc(C(C)(F)F)ccn2)cc1-c1cc(N2CCOCC2)c(=O)n(C)c1` [Example 905, 4-(1,1-difluoroethyl)-N-(4-methyl-3-(1-methyl-5-morpholino-6-oxo-1,6-dihydropyridin-3-yl)phenyl)picolinamide], the pIC50 was 8.63.

Turning to `Cc1ccc(NC(=O)c2cc(C(C)(C)O)ccn2)cc1-c1cc(N2CCOCC2)c(=O)n(C)c1` [Example 906, 4-(2-hydroxypropan-2-yl)-N-(4-methyl-3-(1-methyl-5-morpholino-6-oxo-1,6-dihydropyridin-3-yl)phenyl)picolinamide], the pIC50 is 8.02.

For `Cc1ccc(NC(=O)c2cc(C(C)(C)F)ccn2)cc1-c1cc(N2CCOCC2)c(=O)n(C)c1` [Example 907, 4-(2-fluoropropan-2-yl)-N-(4-methyl-3-(1-methyl-5-morpholino-6-oxo-1,6-dihydropyridin-3-yl)phenyl)picolinamide], the pIC50 is 8.35.

In the case of `Cc1ccc(NC(=O)c2cncc(C(F)(F)F)c2)cc1-c1cc(N2CCOCC2)c(=O)n(C)n1` [Example 909, N-(4-methyl-3-(1-methyl-5-morpholino-6-oxo-1,6-dihydropyridazin-3-yl)phenyl)-5-(trifluoromethyl)nicotinamide], the pIC50 was 8.81.

For `Cc1ccc(NC(=O)c2cc(C(C)(C)C#N)ccn2)cc1-c1cc(N2CCOCC2)c(=O)n(C)n1` [Example 910, 4-(2-cyanopropan-2-yl)-N-(4-methyl-3-(1-methyl-5-morpholino-6-oxo-1,6-dihydropyridazin-3-yl)phenyl)picolinamide], the pIC50 was 8.29.

For `Cc1ncc(NC(=O)c2ccnc(C(C)(C)F)c2)cc1-c1cc(N2CCOCC2)c(OC(C)C)nn1` [Example 911, 2-(2-fluoropropan-2-yl)-N-(5-(6-isopropoxy-5-morpholinopyridazin-3-yl)-6-methylpyridin-3-yl)isonicotinamide], the pIC50 is 8.45.

As for `Cc1ncc(NC(=O)c2ccnc(C(C)(F)F)c2)cc1-c1cc(N2CCOCC2)c(OC(C)C)nn1` [Example 912, 2-(1,1-difluoroethyl)-N-(5-(6-isopropoxy-5-morpholinopyridazin-3-yl)-6-methylpyridin-3-yl)isonicotinamide], the pIC50 is 8.65.

On to `Cc1ncc(NC(=O)c2ccnc(C(F)F)c2)cc1-c1cc(N2CCOCC2)c(OC(C)C)nn1` [Example 913, 2-(difluoromethyl)-N-(5-(6-isopropoxy-5-morpholinopyridazin-3-yl)-6-methylpyridin-3-yl)isonicotinamide], for which the pIC50 is 8.67.

Regarding `CCC(F)(F)c1cc(C(=O)Nc2cnc(C)c(-c3cc(N4CCOCC4)c(OCC(F)F)nn3)c2)ccn1` [Example 914, N-(5-(6-(2,2-difluoroethoxy)-5-morpholinopyridazin-3-yl)-6-methylpyridin-3-yl)-2-(1,1-difluoropropyl)isonicotinamide], the pIC50 is 8.71.

Take `Cc1ncc(NC(=O)c2ccnc(C(C)(F)F)c2)cc1-c1cc(N2CCOCC2)c(OCC(F)F)nn1` [Example 915, N-(5-(6-(2,2-difluoroethoxy)-5-morpholinopyridazin-3-yl)-6-methylpyridin-3-yl)-2-(1,1-difluoroethyl)isonicotinamide]: the pIC50 was 8.95.

On to `Cc1ncc(NC(=O)c2cc(C(F)(F)F)ccn2)cc1-c1cc(N2CCOCC2)c(OCC(F)F)nn1` [Example 916, N-(5-(6-(2,2-difluoroethoxy)-5-morpholinopyridazin-3-yl)-6-methylpyridin-3-yl)-4-(trifluoromethyl)picolinamide], for which the pIC50 is 8.88.

Take `Cc1ncc(NC(=O)c2cncc(C(F)(F)F)c2)cc1-c1cc(N2CCOCC2)c(OCC(F)F)nn1` [Example 917, N-(5-(6-(2,2-difluoroethoxy)-5-morpholinopyridazin-3-yl)-6-methylpyridin-3-yl)-5-(trifluoromethyl)nicotinamide]: the pIC50 is 9.10.

On to `Cc1ncc(NC(=O)c2cccc(C(F)(F)F)c2)cc1-c1cc(N2CCOCC2)c(OCC(F)F)nn1` [Example 918, N-(5-(6-(2,2-difluoroethoxy)-5-morpholinopyridazin-3-yl)-6-methylpyridin-3-yl)-3-(trifluoromethyl)benzamide], for which the pIC50 is 8.93.

Turning to `Cc1ncc(NC(=O)c2cccc(C(F)(F)F)c2)cc1-c1cc(N2CCOCC2)c(S(C)(=O)=O)nn1` [Example 919, N-(6-methyl-5-(6-(methylsulfonyl)-5-morpholinopyridazin-3-yl)pyridin-3-yl)-3-(trifluoromethyl)benzamide], the pIC50 was 8.39.

`Cc1ncc(NC(=O)c2ccnc(C(C)(F)F)c2)cc1-c1cc(N2CCOCC2)c(S(C)(=O)=O)nn1` [Example 920, 2-(1,1-difluoroethyl)-N-(6-methyl-5-(6-(methylsulfonyl)-5-morpholinopyridazin-3-yl)pyridin-3-yl)isonicotinamide]: the pIC50 was 8.05.

`Cc1ncc(NC(=O)c2ccnc(C(F)(F)F)c2)cc1-c1cc(N2CCOCC2)c(S(C)(=O)=O)nn1` [Example 921, N-(6-methyl-5-(6-(methylsulfonyl)-5-morpholinopyridazin-3-yl)pyridin-3-yl)-2-(trifluoromethyl)isonicotinamide]: the pIC50 was 8.11.

For `Cc1ncc(NC(=O)c2cc(C(F)(F)F)ccn2)cc1-c1cc(N2CCOCC2)c(S(C)(=O)=O)nn1` [Example 923, N-(6-methyl-5-(6-(methylsulfonyl)-5-morpholinopyridazin-3-yl)pyridin-3-yl)-4-(trifluoromethyl)picolinamide], the pIC50 is 8.26.

Consider `Cc1ncc(NC(=O)c2ccnc(C(C)(C)C#N)c2)cc1-c1cc(N2CCOCC2)c(S(C)(=O)=O)nn1` [Example 924, 2-(2-cyanopropan-2-yl)-N-(6-methyl-5-(6-(methylsulfonyl)-5-morpholinopyridazin-3-yl)pyridin-3-yl)isonicotinamide], for which the pIC50 is 7.24.

For the compound `CCC(F)(F)c1cc(C(=O)Nc2cnc(C)c(-c3cc(N4CCOCC4)c(S(C)(=O)=O)nn3)c2)ccn1` [Example 925, 2-(1,1-difluoropropyl)-N-(6-methyl-5-(6-(methylsulfonyl)-5-morpholinopyridazin-3-yl)pyridin-3-yl)isonicotinamide], the pIC50 was 7.91.

Consider `CCC(F)(F)c1cc(C(=O)Nc2ccc(C)c(-c3cc(N4CCOCC4)c(S(C)(=O)=O)nn3)c2)ccn1` [Example 926, 2-(1,1-difluoropropyl)-N-(4-methyl-3-(6-(methylsulfonyl)-5-morpholinopyridazin-3-yl)phenyl)isonicotinamide], for which the pIC50 was 8.67.
